{"source": "patent US20240360146A1", "about": "“BRUTON'S TYROSINE KINASE AND MUTANT DEGRADER, COMPOSITION AND APPLICATION THEREOF” (HANGZHOU HEALZEN THERAPEUTICS CO., LTD., priority 2021, published 2024)"}
{"target": "T1, BTK (Homo sapiens, UniProt Q06187)", "T1 construct": "endogenous in cells; host or cells: Mino cells", "T1 sequence (Q06187 whole entry)": "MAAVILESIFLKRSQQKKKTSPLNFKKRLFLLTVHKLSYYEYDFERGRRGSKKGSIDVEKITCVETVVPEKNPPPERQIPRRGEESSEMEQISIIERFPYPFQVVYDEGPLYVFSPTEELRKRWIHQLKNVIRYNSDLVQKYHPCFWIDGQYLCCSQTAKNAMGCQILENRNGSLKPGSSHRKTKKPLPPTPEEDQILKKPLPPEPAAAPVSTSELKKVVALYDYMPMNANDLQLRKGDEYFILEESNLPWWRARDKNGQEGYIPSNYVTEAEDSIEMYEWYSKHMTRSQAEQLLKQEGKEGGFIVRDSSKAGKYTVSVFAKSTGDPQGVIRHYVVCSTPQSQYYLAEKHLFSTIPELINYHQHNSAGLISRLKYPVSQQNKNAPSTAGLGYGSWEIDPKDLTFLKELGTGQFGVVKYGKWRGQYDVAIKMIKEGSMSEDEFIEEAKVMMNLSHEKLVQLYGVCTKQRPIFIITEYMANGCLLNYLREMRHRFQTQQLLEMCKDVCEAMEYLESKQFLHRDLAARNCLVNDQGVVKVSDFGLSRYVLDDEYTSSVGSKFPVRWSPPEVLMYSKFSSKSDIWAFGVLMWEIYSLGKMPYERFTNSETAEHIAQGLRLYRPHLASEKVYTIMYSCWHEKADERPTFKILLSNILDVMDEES", "assay": "BTK degradation activity test in Mino cells", "type": "cell-based", "details": "16 h incubation, Western blot or Elisa", "summary_of_the_method": "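DC50 derived by curve fitting of BTK degradation rates versus untreated control across compound concentrations. Mino cells were exposed for 16 h; BTK levels in lysates, normalised via BCA protein, measured by Western blot or ELISA.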", "units": {"DC50": "nM"}}
{"smiles": "NC(=O)c1nnc(N2CCCC(N3CCN(C4CCCC4)C3=O)C2)nc1Nc1ccc(C2CCN(CC3CCN(c4ccc5c(c4)C(=O)N(C4CCC(=O)NC4=O)C5=O)CC3)CC2)cc1", "note": "(stereo not drawn) [Compound 060, 3-(3-(3-cyclopentyl-2-oxoimidazolin-1-yl)piperidin-1-yl)-5-((4-(1-((1-(2-(2,6-dioxopiperidin-3-yl)-1,3-dioxoisoindol-5-yl)piperidin-4-yl)methyl)piperidin-4-yl)phenyl)amino)-1,2,4-triazin-6-carboxamide]", "DC50": "< 1"}
{"smiles": "CN1CCN([C@@H]2CCCN(c3nnc(C(N)=O)c(Nc4ccc(N5CCN(CC6CCN(c7ccc(N8CCC(=O)NC8=O)c8c7OCO8)CC6)CC5)c(F)c4)n3)C2)C1=O", "note": "[Compound 190, (R)-5-((4-(4-((1-(7-(2,4-dioxotetrahydropyrimidin-1(2H)-yl)benzo[d][1,3]dioxacyclopent-4-yl)piperidin-4-yl)methyl)piperazin-1-yl)-3-fluorophenyl)amino)-3-(3-(3-methyl-2-oxoimidazolidin-1-yl)piperidin-1-yl)-1,2,4-triazin-6-carboxamide]", "DC50": "< 1"}
{"smiles": "CCN1CCN(C2CCCN(c3nnc(C(N)=O)c(Nc4ccc(C5CCN(CC6CCN(c7ccc8c(c7)C(=O)N(C7CCC(=O)NC7=O)C8=O)CC6)CC5)cc4)n3)C2)C1=O", "note": "(stereo not drawn) [Compound 054, 5-((4-(1-((1-(2-(2,6-dioxopiperidin-3-yl)-1,3-dioxoisooctyl-5-yl)piperidin-4-yl)methyl)piperidin-4-yl)phenyl)amino)-3-(3-(3-ethyl-2-oxyimidazolin-1-yl)piperidin-1-yl)-1,2,4-triazin-6-carboxamide]", "DC50": "< 1"}
{"smiles": "CC1(c2ccc(Nc3nc(N4CCCC(N5CCN(C6CCCC6)C5=O)C4)cnc3C(N)=O)cc2)CCN(C2CN(c3cccc4c3C(=O)N(C3CCC(=O)NC3=O)C4=O)C2)CC1", "note": "(stereo not drawn) [Compound 020, 5-(3-(3-cyclopentyl-2-oxoimidazolin-1-yl)piperidin-1-yl)-3-((4-(1-(1-(2-(2,6-dioxopiperidin-3-yl)-1,3-dioxoisoindol-4-yl)azetidin-3-yl)-4-methylpiperidin-4-yl)phenyl)amino)pyrazin-2-carboxamide]", "DC50": "< 1"}
{"smiles": "CN1CCN(C2CCCN(c3nnc(C(N)=O)c(Nc4ccc5c(c4)CCN(CC4CCN(c6ccc7c(c6)C(=O)N(C6CCC(=O)NC6=O)C7=O)CC4)C5)n3)C2)C1=O", "note": "(stereo not drawn) [Compound 081, 5-((2-((1-(2-(2,6-dioxopiperidin-3-yl)-1,3-dioxoisoindol-5-yl)piperidin-4-yl)methyl)-1,2,3,4-tetrahydroisoquinolin-6-yl)amino)-3-(3-(3-methyl-2-oxoimidazolin-1-yl)piperidin-1-yl)-1,2,4-triazin-6-carboxamide]", "DC50": "< 1"}
{"smiles": "CN1CCN([C@@H]2CCCN(c3nnc(C(N)=O)c(Nc4ccc(N5CCN(CC6CCN(c7ccc8c(C9CCC(=O)NC9=O)noc8c7)CC6)CC5)c(F)c4)n3)C2)C1=O", "note": "(stereo partly drawn) [Compound 243, 5-((4-(4-((1-(3-(2,6-dioxopiperidin-3-yl)benzo[d]isoxazol-6-yl)piperidin-4-yl)methyl)piperazin-1-yl)-3-fluorophenyl)amino)-3-((R)-3-(3-methyl-2-oxoimidazolidin-1-yl)piperidin-1-yl)-1,2,4-triazin-6-carboxamide]", "DC50": "< 1"}
{"smiles": "CN1CCN(C2CC3CC2N(c2nnc(C(N)=O)c(Nc4ccc(C5CCN(CC6CCN(c7cc8c(cc7F)C(=O)N(C7CCC(=O)NC7=O)C8=O)CC6)CC5)cc4)n2)C3)C1=O", "note": "(stereo not drawn) [Compound 111, 5-((4-(1-((1-(2-(2,6-dioxopiperidin-3-yl)-6-fluoro-1,3-dioxoisoindol-5-yl)piperidin-4-yl)methyl)piperidin-4-yl)phenyl)amino)-3-(6-(3-methyl-2-oxoimidazolin-1-yl)-2-azabicyclo[2.2.1]heptan-2-yl)-1,2,4-triazin-6-carboxamide]", "DC50": "< 1"}
{"smiles": "NC(=O)c1nnc(N2CCCC(N3CCN(c4ccccc4)C3=O)C2)nc1Nc1ccc(C2CCN(C3CN(c4ccc5c(c4)C(=O)N(C4CCC(=O)NC4=O)C5=O)C3)CC2)cc1", "note": "(stereo not drawn) [Compound 090, 5-((4-(1-(1-(2-(2,6-dioxopiperidin-3-yl)-1,3-dioxoisoindol-5-yl)azetidin-3-yl)piperidin-4-yl)phenyl)amino)-3-(3-(2-oxo-3-phenylimidazolin-1-yl)piperidin-1-yl)-1,2,4-triazin-6-carboxamide]", "DC50": "< 1"}
{"smiles": "CC1(c2ccc(Nc3nc(N4CCCC(N5CCN(C6CCCC6)C5=O)C4)cnc3C(N)=O)cc2)CCN(CC2CCN(c3ccc4c(c3)C(=O)N(C3CCC(=O)NC3=O)C4=O)C2)CC1", "note": "(stereo not drawn) [Compound 034, 5-(3-(3-cyclopentyl-2-oxoimidazolin-1-yl)piperidin-1-yl)-3-((4-(1-((1-(2-(2,6-dioxopiperidin-3-yl)-1,3-dioxoisoindolin-5-yl)pyrrolidin-3-yl)methyl)-4-methylpiperidin-4-yl)phenyl)amino)pyrazin-2-carboxamide]", "DC50": "< 1"}
{"smiles": "CN1CCN([C@@H]2CCCN(c3nnc(C(N)=O)c(Nc4ccc(N5CCN(CC6CCN(c7ccn8c(C9CCC(=O)NC9=O)cnc8c7)CC6)CC5)c(F)c4)n3)C2)C1=O", "note": "(stereo partly drawn) [Compound 244, 5-((4-(4-((1-(3-(2,6-dioxopiperidin-3-yl)imidazo[1,2-a]pyridin-7-yl)piperidin-4-yl)methyl)piperazin-1-yl)-3-fluorophenyl)amino)-3-((R)-3-(3-methyl-2-oxoimidazolidin-1-yl)piperidin-1-yl)-1,2,4-triazin-6-carboxamide]", "DC50": "< 1"}
{"smiles": "CN1CCN([C@@H]2CCCN(c3nnc(C(N)=O)c(Nc4ccc(N5CCN(CC6CCN(c7ccc(NC8CCC(=O)NC8=O)c(F)c7)C6)CC5)c(F)c4)n3)C2)C1=O", "note": "(stereo partly drawn) [Compound 204, 5-((4-(4-((1-(4-((2,6-dioxopiperidin-3-yl)amino)-3-fluorophenyl)pyrrolidin-3-yl)methyl)piperazin-1-yl)-3-fluorophenyl)amino)-3-((R)-3-(3-methyl-2-oxoimidazolidin-1-yl)piperidin-1-yl)-1,2,4-triazin-6-carboxamide]", "DC50": "< 1"}
{"smiles": "NC(=O)c1nnc(N2CCCC(N3CCN(CC(F)(F)F)C3=O)C2)nc1Nc1ccc(C2CCN(CC3CCN(c4ccc5c(c4)C(=O)N(C4CCC(=O)NC4=O)C5=O)CC3)CC2)cc1", "note": "(stereo not drawn) [Compound 057, 5-((4-(1-((1-(2-(2,6-dioxopiperidin-3-yl)-1,3-dioxoisoindol-5-yl)piperidin-4-yl)methyl)piperidin-4-yl)phenyl)amino)-3-(3-(2-oxo-3-(2,2,2-trifluoroethyl)imidazolin-1-yl)piperidin-1-yl)-1,2,4-triazin-6-carboxamide]", "DC50": "< 1"}
{"smiles": "CN1CCN(C2CC3CC2N(c2nnc(C(N)=O)c(Nc4ccc(N5CCN(CC6CCN(c7ccc8c(c7)C(=O)N(C7CCC(=O)NC7=O)C8=O)CC6)CC5)cc4)n2)C3)C1=O", "note": "(stereo not drawn) [Compound 108, 5-((4-(4-((1-(2-(2,6-dioxopiperidin-3-yl)-1,3-dioxoisoindol-5-yl)piperidin-4-yl)methyl)piperazin-1-yl)phenyl)amino)-3-(6-(3-methyl-2-oxoimidazolin-1-yl)-2-azabicyclo[2.2.1]heptan-2-yl)-1,2,4-triazin-6-carboxamide]", "DC50": "> 1"}
{"smiles": "CN1CCN([C@@H]2CCCN(c3nnc(C(N)=O)c(Nc4ccc(N5CCN(CC6CCN(c7ccc(N8CCC(=O)NC8=O)c8cccnc78)CC6)CC5)c(F)c4)n3)C2)C1=O", "note": "[Compound 199, (R)-5-((4-(4-((1-(5-(2,4-dioxotetrahydropyrimidin-1(2H)-yl)quinolin-8-yl)piperidin-4-yl)methyl)piperazin-1-yl)-3-fluorophenyl)amino)-3-(3-(3-methyl-2-oxoimidazolidin-1-yl)piperidin-1-yl)-1,2,4-triazin-6-carboxamide]", "DC50": "< 1"}
{"smiles": "CN1CCN([C@@H]2CCCN(c3nnc(C(N)=O)c(Nc4ccc(N5CCN(CC6CCN(c7ccc(N8CCC(=O)NC8=O)cc7S(C)(=O)=O)CC6)CC5)c(F)c4)n3)C2)C1=O", "note": "[Compound 197, (R)-5-((4-(4-((1-(4-(2,4-dioxotetrahydropyrimidin-1(2H)-yl)-2-(methylsulfonyl)phenyl)piperidin-4-yl)methyl)piperazin-1-yl)-3-fluorophenyl)amino)-3-(3-(3-methyl-2-oxoimidazolidin-1-yl)piperidin-1-yl)-1,2,4-triazin-6-carboxamide]", "DC50": "< 1"}
{"smiles": "CN1CCN([C@@H]2CCCN(c3nnc(C(N)=O)c(Nc4ccc(N5CCN(C[C@@H]6CCN(c7ccc8c(c7)C(=O)N(C7CCC(=O)NC7=O)C8=O)C6)CC5)c(Cl)c4)n3)C2)C1=O", "note": "(stereo partly drawn) [Compound 159, 5-((3-chloro-4-(4-(((3S)-1-(2-(2,6-dioxopiperidin-3-yl)-1,3-dioxoisoindolin-5-yl)pyrrolidin-3-yl)methyl)piperazin-1-yl)phenyl)amino)-3-((R)-3-(3-methyl-2-oxoimidazolidin-1-yl)piperidin-1-yl)-1,2,4-triazin-6-carboxamide]", "DC50": "< 1"}
{"smiles": "CN1CCN(C2CC3CC2N(c2nnc(C(N)=O)c(Nc4ccc(C5CCN(CC6CCN(c7ccc8c(c7)n(C)c(=O)n8C7CCC(=O)NC7=O)CC6)CC5)cc4)n2)C3)C1=O", "note": "(stereo not drawn) [Compound 114, 5-((4-(1-((1-(1-(2,6-dioxopiperidin-3-yl)-3-methyl-2-oxo-2,3-dihydro-1H-benzo[d]imidazol-5-yl)piperidin-4-yl)methyl)piperidin-4-yl)phenyl)amino)-3-(6-(3-methyl-2-oxoimidazolin-1-yl)-2-azabicyclo[2.2.1]heptan-2-yl)-1,2,4-triazin-6-carboxamide]", "DC50": "< 1"}
{"smiles": "Cc1cc(N2CCC(CN3CCC(c4ccc(Nc5nc(N6CCC[C@@H](N7CCN(C)C7=O)C6)nnc5C(N)=O)c(CO)c4)CC3)CC2)ccc1N1CCC(=O)NC1=O", "note": "[Compound 238, (R)-5-((4-(1-((1-(4-(2,4-dioxotetrahydropyrimidin-1(2H)-yl)-3-methylphenyl)piperidin-4-yl)methyl)piperidin-4-yl)-2-(hydroxymethyl)phenyl)amino)-3-(3-(3-methyl-2-oxoimidazolidin-1-yl)piperidin-1-yl)-1,2,4-triazin-6-carboxamide]", "DC50": "< 1"}
